# From patent publication US20140088144A1, “INHIBITING MICROBIAL INFECTIONS” (THE UNIVERSITY OF KANSAS, priority 2012, published 2014)
# Columns and labels:
# [1] = tested on: E. coli strains used for in vivo assays; experiment: E. coli growth curves; format: cell-based; conditions: for impact on growth of the cells: minimal medium
# Experimental: Strains SME3634 and SME3359 were grown overnight (˜16 hr) at 37° C. in MOPS-buffered minimal medium. Overnight grown cultures were diluted into the same medium plus rhamnose to an O.D600 of 0.1, and IPTG was added. 1 mL aliquots of the cultures were added to wells of a 24-well plate, with the addition of either 44 μM Compound 1 (dissolved in 100% DMSO) or an equal volume of 100% DMSO. Growth was monitored at 20 min intervals for approximately 8 hr. at 37° C. with continuous shaking in a PowerWave XS plate reader (BioTek Instruments, Inc., Winooski, Vt.). Error bars represent the standard error of the mean.
# To test the impact of SE-1 on growth of the bacterial strains used for in vivo dose-response assays (SME4382 and SME3359), we compared growth rates in the presence and absence of SE-1, without addition of rhamnose. Briefly, the cells were grown at 37° C. with shaking in MOPS-buffered minimal medium with glycerol and plus 6.5 mM IPTG, in 24-well plates, with or without: SE-1 (44 uM SE-1, 0.3% DMSO), or DMSO (0.3%) in a PowerWave XS plate reader equipped with KC^4 data analysis software (BioTek Instruments).
# VirF [2] = target: T1, VirF (Shigella flexneri, UniProt P0A2T1); experiment: % Inhibition at 82.5 μM, VirF; format: cell-based; conditions: 82.5 μM
# T1 sequence (P0A2T1 whole entry, the tested form may be a part): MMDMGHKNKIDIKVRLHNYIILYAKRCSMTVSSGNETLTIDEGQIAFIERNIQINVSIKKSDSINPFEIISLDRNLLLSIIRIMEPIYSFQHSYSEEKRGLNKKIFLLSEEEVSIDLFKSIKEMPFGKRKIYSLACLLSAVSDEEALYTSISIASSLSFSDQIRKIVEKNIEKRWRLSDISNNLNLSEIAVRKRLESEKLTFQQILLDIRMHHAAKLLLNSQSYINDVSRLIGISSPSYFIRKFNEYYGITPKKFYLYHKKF
# VirF [3] = target: T1, VirF; experiment: In vivo dose-response, VirF-activated virB-lacZ fusion in E. coli; format: cell-based; parameters: expressed in transfected cells; host or cells: E. coli SME4382 (virB-lacZ, pHG165virF)
# Description: For dose-response studies, a virB-lacZ reporter strain was constructed that allowed IPTG (isopropyl-β-D-thiogalactopyranoside) induced expression of VirF from plasmid pHG165. To construct this virB-lacZ reporter strain, kMAD102 was isolated from strain AB97, used to infect strain ECL116, and single copy lysogens were identified. Plvir-mediated generalized transductions were then used to add malP::lacI^q and recA::cat to this strain, as described previously. The virF gene was amplified (Forward oligo, Reverse oligo), digested with EcoRI and PstI and then ligated into the same sites of plasmid pHG165. The resulting plasmid, pHG165virF was transformed into SME4259 to make SME4382 (FIG. 20, Top). A control strain, SME3359, which carries a single copy hts-lacZ reporter fusion in the chromosome and a plasmid pHG165lacI that expresses LacI protein (FIG. 20, Bottom), was constructed. Briefly, the hts-lacZ reporter fusion consists of a synthetic promoter that is repressed by Lad.
# (§1) In vivo dose-response assays were performed using a procedure described previously. […] Bacterial cultures were mixed with varying concentrations of SE-1 (2.2% DMSO, final), induced with 6.5 mM IPTG for 3 h at 37° C., lysed and β-galactosidase activity was measured. […] IC50 values were calculated and graphs were drawn using Prism (GraphPad, La Jolla, Calif.).
# [4] = tested on: LacI-repressed hts-lacZ fusion; experiment: LacI-repressed hts-lacZ control reporter fusion (β-galactosidase); format: cell-based, E. coli; conditions: hts-lacZ control (SME3359)
# Description: The control strain for the secondary high-throughput screen and subsequent experiments was SME3359, and carries the LacI-repressed fusion and LacI-expressing pHG165lacI. The fusion consists of lacZ under the control of an artificial promoter (Phts) with an induced expression level similar to that of the induced rhaBAD operon. Phts is regulated by Lad and induced with IPTG. The Phts core promoter elements include a near-consensus −35 sequence and a −10 sequence followed by a lacO1 operator sequence that overlaps the transcription start site with the same spacing as lacO1 at lacZYA. To construct the upstream half of Phts, oligo 2829 was annealed to oligo 2788 and the primers were extended using the Expand High Fidelity PCR System (Roche Applied Science, Indianapolis, Ind.). The downstream half of the Phts promoter was constructed by similarly annealing and extending oligos 2789 and 2790.
# The top hit identified in the screen was 1-ethyl-4-(nitromethyl)-3-quinolin-2-yl-4H-quinoline, Compound 2. […] Lysis/ONPG buffer (50 μL, as in Primary Screen) was added to each well and the plate was immediately placed into a PowerWave XS plate reader (BioTek Instruments, Inc., Winooski, Vt.), set to read the OD420 of each well every 15 min for 4 hr. […] Due to differences in kinetics of lacZ reporter expression, the rhaB-lacZ strains were analyzed at 4 hours and the hts-lacZ strain was analyzed at 1 hr. Percent activity was calculated for each condition as described above, using the single time point with appropriate OD420 levels for each strain. […] IC50 and maximal inhibition values were calculated using the XLfit add-in for Microsoft Excel (ID Business Solutions, Guildford, UK), and graphs were drawn using Prism (GraphPad, La Jolla, Calif.).
# as §1
smiles,measurement,setting,value
"CCCCN1C=C(c2ccc3ccccc3n2)C(C[N+](=O)[O-])c2ccccc21 (centres unmarked) [Compound 1, 1-butyl-4-(nitromethyl)-3-quinolin-2-yl-4H-quinoline]",effect on growth of either strain,"[1]; 44 uM, SME4382 and SME3359, 8 h at 37° C.",no detectable effect
same,impact on growth of the cells,"[1]; 44 μM, strains with RhaS-activated and LacI-repressed fusions (SME3634, SME3359)",no impact
same,impact on growth of the cells,[1]; strains with VirF/Rns-activated and LacI-repressed reporter fusions,no impact
same,% Inhibition at 82.5 μM VirF,VirF [2],100%
same,IC50,"VirF [3]; IC50, virB-lacZ reporter fusion expression, E. coli strain with plasmid-expressed VirF",~8 µM
same,inhibition of in vivo activation by VirF,VirF [3]; compared with full-length RhaS,"similar, if not greater, extent than full-length RhaS"
same,inhibition of the LacI-repressed fusion,[4],small amount of non-specific inhibition
same,inhibition of the LacI-repressed fusion,[4]; listed as SE-1,some non-specific inhibition
